Source: patent publication US10761001B2, “Devices and methods for tension measurements and applications of same” (Vanderbilt University, priority 2016, dated 2020)
“Also recorded” adds a separate entry of the source.

Assays:
[1] = system: engineered cardiac tissue construct (ECTC) from neonatal rat ventricular cells; experiment: I-Wire ECTC elasticity measurement (stretch-stress curve, Young's modulus); format: cell-based
Protocol: (§1) Method step 2. Cell isolation and culturing: Neonatal rat ventricular cells were obtained from 2-day-old neonatal Sprague-Dawley rats using a trypsin digestion protocol with agitation overnight at 4° C. and plating cells for 40 minutes at 37° C. The population of isolated cells is heterogeneous and besides cardiomyocytes includes cardiofibroblasts, endothelial cells, and vascular smooth muscle cells. The presence of the different cell types is important for formation of the extracellular matrix and tissue structure. The isolated cells were mixed with fibrinogen (5 mg/mL, Sigma-Aldrich, St. Louis, Mo., USA)/Matrigel™ (100 μL/mL, BD Biosciences, San Jose, Calif., USA) plus thrombin (15 μL, 100 U/mL, Sigma-Aldrich, St. Louis, Mo., USA), and pipetted in a casting mold (FIG. 21A). Thereafter, cells were kept at 37° C. in a 5% CO2 humidified cell culture incubator for 1 hour. When fibrinogen was polymerized, 2 mL of cell culture media was added per well. The culture medium consisted of DMEM (Gibco Fisher Scientific, Waltham, Mass., USA), 10% horse serum (Gibco Fisher Scientific, Waltham, Mass., USA), 2% chick embryo extract (US Biological Fisher Scientific, Waltham, Mass., USA), 1% penicillin/streptomycin (Gibco Fisher Scientific, Waltham, Mass., USA), 10 μg/mL insulin (Sigma-Aldrich, St. Louis, Mo., USA), 400 μM tranexamic acid (Sigma-Aldrich, St. Louis, Mo., USA), and 33 μg/mL aprotinin (Sigma-Aldrich, St. Louis, Mo., USA). Over time, the preparation condensed to form elongated muscle fibers of 350-400 μm in diameter and 7 mm long. After 13-15 days of culturing, the contractility and stiffness of the ECTC (FIGS. 21B and 21C) could be measured using our microscope-based optical setup (FIG. 3A).
Method step 3. […]
At first, the linear part of the ECTC stretch-force curve was fitted using a linear equation and the amount of change of ECTC length was calculated. […]

isolated mice CMs = settings: after application of blebbistatin; cited from earlier work
[2] = system: engineered cardiac tissue construct (ECTC) from neonatal rat ventricular cells; experiment: I-Wire ECTC contractility under β-adrenergic stimulation; format: cell-based
Protocol: as §1
Method step 3. Registration system for the contraction recording: To apply tensional force to the ECTC and detect contraction, a flexible PEEK tube of 365 μm in outer diameter and 120 μm bore (Putnam Plastics, Dayville, Conn., USA) and 28 mm length was glued to a Plexiglas cantilever adjuster attached to a cantilever support plate with two embedded position-control magnets (FIG. 3A). The stiffness of the probe was roughly matched to that of the ECTC; one might choose to use either a softer or stiffer probe to study ECTCs with different mechanical properties. The cantilever support plate with cantilever adjuster and flexible probe was mounted with a friction fit to the condenser of the inverted optical microscope (Eclipse Ti, Nikon, Melville, N.Y., USA) equipped with a digital camera system (Zyla sCMOS Camera, Andor Technology, Belfast, Northern Ireland). […]
Method step 4. Registration of action potential and reconstruction of electrical and mechanical restitution: Action potentials were recorded by utilizing floating micropipettes filled with 3-M KCl. […]

Row | Structure (SMILES) | decrease of ECTC stiffness ([1]; 6 μM blebbistatin) [%] | Young's modulus of the ECTC ([1]; 6 μM blebbistatin, untreated (relaxation) 13.4±2.5 kPa, N=5, P<0.05) [kPa] | slope of the fitted straight line of the stretch-stress curve ([1]; blebbistatin-treated ECTCs, 6 μM, systolic 4.9, diastolic 15.1 %/mN) [%/mN] | lowering of the diastolic stress (isolated mice CMs) [%] | contraction duration ([2]; 1 μM isoproterenol (β-adrenergic stimulation)) | contraction velocity ([2]; 1 μM isoproterenol, applied force exceeded 0.233 mN, P<0.05, N=7) | developed force ([2]; 1 μM isoproterenol, applied transverse forces greater than 0.156 mN, P<0.05, N=7) | force exerted by the ECTC during contraction and relaxation ([2]; 1 μM isoproterenol, separate analysis of systole and diastole)
1 | Cc1ccc2c(c1)C(=O)C1(O)CCN(c3ccccc3)C1=N2 (centres unmarked) [blebbistatin] | 23 | 10.3±2.8 | 17.5 | 30 |  |  |  | 
2 | CC(C)NCC(O)c1ccc(O)c(O)c1 (centres unmarked) [isoproterenol] |  |  |  |  | shortening | statistically significant acceleration | significant increase | significant change occurs only in the phase of relaxation; also recorded: significant effect of the isoproterenol only during the diastolic phase
